In series [1] the target is h-cGAS (Homo sapiens, UniProt Q8N884). Briefly: Cell-free human cGAS enzyme inhibition assay (ATP depletion, Kinase-Glo Max). The format is biochemical. The note with it: 3 h; for inhibition at 1 µM: read-out: h-cGAS, conc. 1 μM; for inhibition at 10 µM: read-out: h-cGAS, conc. 10 μM.
The target of series [2] is m-cGAS (Mus musculus, UniProt Q8C6L5). Description: Cell-free mouse cGAS enzyme inhibition assay (ATP depletion, Kinase-Glo Max). The format is biochemical. The note with it: 1 h; for inhibition at 10 µM: read-out: m-cGAS, conc. 10 μM; for inhibition at 1 µM: read-out: m-cGAS, conc. 1 μM.
m-cGAS, sequence (Q8C6L5 whole entry): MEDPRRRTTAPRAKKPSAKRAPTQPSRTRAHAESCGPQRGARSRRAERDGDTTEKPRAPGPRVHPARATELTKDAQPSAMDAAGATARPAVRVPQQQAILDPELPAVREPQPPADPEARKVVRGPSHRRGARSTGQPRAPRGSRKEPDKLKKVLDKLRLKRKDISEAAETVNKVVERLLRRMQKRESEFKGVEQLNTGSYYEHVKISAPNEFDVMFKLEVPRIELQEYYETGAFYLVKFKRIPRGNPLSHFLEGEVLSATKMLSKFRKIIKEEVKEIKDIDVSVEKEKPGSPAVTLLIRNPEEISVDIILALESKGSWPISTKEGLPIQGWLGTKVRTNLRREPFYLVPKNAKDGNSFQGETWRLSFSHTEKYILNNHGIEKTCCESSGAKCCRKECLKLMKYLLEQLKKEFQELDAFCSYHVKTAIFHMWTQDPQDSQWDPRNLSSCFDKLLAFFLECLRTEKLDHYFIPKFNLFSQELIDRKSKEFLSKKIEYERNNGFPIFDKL
Series [3] has as its system IFNB. Briefly: THP1-Dual cells transfected with DNA, Ifnb expression (Quantiluc). It counts as cell-based. The note with it: Homo sapiens; for inhibition at 10 µM: THP-1, 10 μM; for inhibition at 30 µM: THP-1, 30 μM. An outline of the steps: (§1)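 THP1-Dual cells were treated with compounds at various dilutions for 4 h, then transfected with DNA (2 ug/ml) using lipofectamine and incubated overnight. Supernatant Ifnb reporter was read with Quantiluc and nfkb reporter with Quantiblue; viability was measured by CellTiter-Glo.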

In series [4] the test system is NFkB-SEAP. Description: THP1-Dual cells transfected with DNA, nfkb expression (Quantiblue). The format is cell-based. The note with it: Homo sapiens; for inhibition at 10 µM: THP-1, 10 μM; for inhibition at 30 µM: THP-1, 30 μM. As for the experimental part: Evaluation of active cGAS inhibitors in THP1 cells (Table 3). Cellular activity of all compounds (in Table 3) was determined using THP1-Dual™ cells as described (Lama et. al., 2019). THP1-Dual™ cells (Invivogen) (50000 cells in 100 μl media) were seeded into each well of a 96-well plate and treated with compounds at various dilution for 4 hours. Subsequently, cells were transfected with DNA (2 ug/ml) and lipofectamine and incubate the cells were incubated overnight. Ifnb expression was measured in cell supernatant using Quantiluc, nfkb expression was determined using Quantiblue, and cell viability using Promega® CellTiter-Glo®.

Series [5] relates to THP1 cells. Description: THP1-Dual cells, cell viability (CellTiter-Glo). It counts as cell-based. The method in brief: as §1
(Cellular ATP, detected with luciferase, serves as a proxy for viable cell number.)

Bounds are passed on as bounds.

h-cGAS, sequence (Q8N884 whole entry): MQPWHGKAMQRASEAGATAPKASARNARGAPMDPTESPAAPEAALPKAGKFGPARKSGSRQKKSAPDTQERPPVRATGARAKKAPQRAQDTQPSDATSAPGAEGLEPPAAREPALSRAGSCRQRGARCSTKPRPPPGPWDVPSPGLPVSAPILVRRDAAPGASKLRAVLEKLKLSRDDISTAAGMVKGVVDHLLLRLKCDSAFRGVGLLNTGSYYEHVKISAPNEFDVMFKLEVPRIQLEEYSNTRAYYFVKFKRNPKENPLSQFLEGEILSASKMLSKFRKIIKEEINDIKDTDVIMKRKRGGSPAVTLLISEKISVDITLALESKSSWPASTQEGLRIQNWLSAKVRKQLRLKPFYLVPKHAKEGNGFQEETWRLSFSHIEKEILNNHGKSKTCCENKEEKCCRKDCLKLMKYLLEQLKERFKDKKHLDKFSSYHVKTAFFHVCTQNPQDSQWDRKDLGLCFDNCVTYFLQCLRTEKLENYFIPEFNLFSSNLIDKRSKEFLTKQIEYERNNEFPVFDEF

Turning to `CC(O)C(=O)N1CCc2c(c3c(-c4ccn(C)n4)cc(Cl)c(Cl)c3n2C)C1` (stereo not shown) [Compound 4], in series [1], the inhibition at 1 µM lay within 25 to 49% and the inhibition at 10 µM is 75 to 100%. Also, the inhibition at 10 µM in series [2] lay within 0 to 24%. In series [3], this molecule had an inhibition at 10 µM of under 24% and an inhibition at 30 µM of 50 to 74%. In series [4], this molecule yielded an inhibition at 10 µM of under 24% and an inhibition at 30 µM of 25 to 49%. Further, in series [5], the “Cell viability 10 μM” value was “+++ (+, ++, and +++ mean the compound respectively shows 25-49%; 50-74%; or 75-100% viability to cells)”; the “Cell viability 30 μM” value was “+++ (+, ++, and +++ mean the compound respectively shows 25-49%; 50-74%; or 75-100% viability to cells)”.

In the case of `CC(C)(N)C(=O)N1CCc2[nH]c3c(Cl)c(Cl)cc(-c4cc[nH]n4)c3c2C1` [Compound 20], the inhibition at 1 µM in series [1] was 25 to 49%. Moreover, the inhibition at 10 µM in series [1] fell in the range of 75 to 100%; in series [2] it was 0 to 24%; in series [3] it was 50 to 74%; in series [4] it was 75 to 100%. The inhibition at 30 µM in series [3] and in series [4] was 75 to 100% throughout. Also, the “Cell viability 10 μM” value in series [5] is “+++ (+, ++, and +++ mean the compound respectively shows 25-49%; 50-74%; or 75-100% viability to cells)”. In series [5], the “Cell viability 30 μM” value was “+++ (+, ++, and +++ mean the compound respectively shows 25-49%; 50-74%; or 75-100% viability to cells)”.

Take `NCC(=O)N1CCc2c(sc3c(Cl)c(Cl)cc(-c4cc[nH]n4)c23)C1` [Compound 77]: in series [1], the inhibition at 1 µM lay within 25 to 49% and the inhibition at 10 µM fell in the range of 50 to 74%. In series [2], the inhibition at 1 µM was in the range of 25 to 49% and the inhibition at 10 µM was in the range of 75 to 100%. Also, in series [3], the inhibition at 10 µM is 25 to 49% and the inhibition at 30 µM was 75 to 100%. Besides, in series [4], the inhibition at 10 µM lay within 50 to 74% and the inhibition at 30 µM was 75 to 100%. In addition, in series [5], the “Cell viability 10 μM” value is “+++ (+, ++, and +++ mean the compound respectively shows 25-49%; 50-74%; or 75-100% viability to cells)”; the “Cell viability 30 μM” value was “− (Cell viability <24%, in THP1 cells is expressed as “−”)”.

In the case of `Cn1c2c(c3c(Br)cc(Cl)c(Cl)c31)CN(C(=O)CN)CC2` [Compound 6], in series [1], the inhibition at 1 µM is 0 to 24% and the inhibition at 10 µM was in the range of 75 to 100%. In addition, in series [2], the inhibition at 10 µM lay within 75 to 100%. In series [3], the inhibition at 10 µM is under 24% and the inhibition at 30 µM was under 24%. In series [4], this molecule displayed an inhibition at 10 µM of under 24% and an inhibition at 30 µM of 25 to 49%. For the same molecule, in series [5], the “Cell viability 10 μM” value is “+++ (+, ++, and +++ mean the compound respectively shows 25-49%; 50-74%; or 75-100% viability to cells)”; the “Cell viability 30 μM” value is “+++ (+, ++, and +++ mean the compound respectively shows 25-49%; 50-74%; or 75-100% viability to cells)”.

For the molecule `CN1c2c(Cl)c(Cl)cc(-c3cncnc3)c2C2CN(C(=O)CN)CCC21` (stereo not shown) [Compound 9], the inhibition at 1 µM in series [1] lay in the range of 50 to 74%. Also, the inhibition at 10 µM in series [1] is 75 to 100%; in series [2] it was 0 to 24%; in series [3], under 24%; in series [4] it was under 24%. The inhibition at 30 µM in series [3] and in series [4] was under 24% each time. Also, the “Cell viability 10 μM” value in series [5] is “+++ (+, ++, and +++ mean the compound respectively shows 25-49%; 50-74%; or 75-100% viability to cells)”. Further, in series [5], the “Cell viability 30 μM” value is “+++ (+, ++, and +++ mean the compound respectively shows 25-49%; 50-74%; or 75-100% viability to cells)”.

With `O=C(CO)N1CCc2oc3c(Cl)c(Cl)cc(-c4cncnc4)c3c2C1` [Compound 25], the inhibition at 1 µM lay in the range of 25 to 49% in series [1] and 0 to 24% in series [2]. In addition, the inhibition at 10 µM in series [1] is 50 to 74%; in series [2], 50 to 74%; in series [4], under 24%. The molecule also came in with an inhibition at 30 µM in series [3] of under 24%. For the same molecule, the “Cell viability 10 μM” value in series [5] was “+++ (+, ++, and +++ mean the compound respectively shows 25-49%; 50-74%; or 75-100% viability to cells)”.

`NCC(=O)N1CCc2c(sc3c(Cl)c(Cl)cc(-c4cncs4)c23)C1` [Compound 87]: in series [1], the inhibition at 1 µM is 0 to 24% and the inhibition at 10 µM lay within 50 to 74%. In addition, in series [2], the inhibition at 1 µM lay in the range of 25 to 49% and the inhibition at 10 µM lay in the range of 75 to 100%. Besides, in series [3], the inhibition at 10 µM was in the range of 75 to 100% and the inhibition at 30 µM lay within 75 to 100%. For the same molecule, in series [4], the inhibition at 10 µM fell in the range of 50 to 74% and the inhibition at 30 µM was in the range of 75 to 100%. In series [5], the “Cell viability 10 μM” value was “− (Cell viability <24%, in THP1 cells is expressed as “−”)” and the “Cell viability 30 μM” value is recorded as “− (Cell viability <24%, in THP1 cells is expressed as “−”)”.

In the case of `NCC(=O)N1CCc2c(sc3c(Cl)c(Cl)cc(-c4ccncc4)c23)C1` [Compound 79], in series [1], the inhibition at 10 µM was in the range of 25 to 49%. Further, in series [2], the inhibition at 1 µM was 25 to 49% and the inhibition at 10 µM lay in the range of 75 to 100%. Also, in series [3], the inhibition at 10 µM fell in the range of 75 to 100% and the inhibition at 30 µM was in the range of 75 to 100%. In series [4], this molecule had an inhibition at 10 µM of 50 to 74% and an inhibition at 30 µM of 75 to 100%. Also, in series [5], the “Cell viability 10 μM” value was “+ (+, ++, and +++ mean the compound respectively shows 25-49%; 50-74%; or 75-100% viability to cells)”; the “Cell viability 30 μM” value is on record as “− (Cell viability <24%, in THP1 cells is expressed as “−”)”.

For `NCC(=O)N1CCc2c(sc3c(Cl)c(Cl)cc(-n4cccn4)c23)C1` [Compound 94], the inhibition at 1 µM in series [1] lay within 25 to 49%; in series [2], 0 to 24%. Moreover, the inhibition at 10 µM in series [1] is 50 to 74%; in series [2], 50 to 74%; in series [3] it was under 24%; in series [4] it was under 24%. Besides, in series [5], the “Cell viability 10 μM” value was “+++ (+, ++, and +++ mean the compound respectively shows 25-49%; 50-74%; or 75-100% viability to cells)”.

Turning to `O=C(CO)N1CCc2oc3c(Cl)c(Cl)ccc3c2C1` [Compound 21], the values for the inhibition at 10 µM in series [1] and in series [2] were 25 to 49% and 75 to 100%, respectively. Besides, the inhibition at 30 µM in series [3] and in series [4] was under 24% in each case. In addition, the “Cell viability 30 μM” value in series [5] was “+++ (+, ++, and +++ mean the compound respectively shows 25-49%; 50-74%; or 75-100% viability to cells)”.

For the molecule `O=C(CO)N1CCc2[nH]c3c(Cl)c(Cl)cc(O)c3c2C1` [Compound 3], the values for the inhibition at 1 µM in series [1] and in series [2] were 50 to 74% and 75 to 100%, respectively. For the same molecule, the inhibition at 10 µM was 75 to 100% in series [1], 75 to 100% in series [2], under 24% in series [3] and under 24% in series [4]. The same molecule registered an inhibition at 30 µM in series [4] of under 24%. Besides, the “Cell viability 10 μM” value in series [5] is “+++ (+, ++, and +++ mean the compound respectively shows 25-49%; 50-74%; or 75-100% viability to cells)”. The “Cell viability 30 μM” value in series [5] is “+++ (+, ++, and +++ mean the compound respectively shows 25-49%; 50-74%; or 75-100% viability to cells)”.

On to `NCC(=O)N1CCc2c(sc3c(Cl)c(Cl)cc(-c4cccs4)c23)C1` [Compound 81], for which, in series [1], the inhibition at 1 µM fell in the range of 0 to 24% and the inhibition at 10 µM fell in the range of 50 to 74%. Moreover, in series [2], the inhibition at 1 µM fell in the range of 0 to 24% and the inhibition at 10 µM was in the range of 50 to 74%. In series [3], the inhibition at 10 µM was 50 to 74% and the inhibition at 30 µM was in the range of 75 to 100%. Also, in series [4], the inhibition at 10 µM was 75 to 100% and the inhibition at 30 µM was in the range of 75 to 100%. Further, in series [5], the “Cell viability 10 μM” value was “+++ (+, ++, and +++ mean the compound respectively shows 25-49%; 50-74%; or 75-100% viability to cells)”; the “Cell viability 30 μM” value was “− (Cell viability <24%, in THP1 cells is expressed as “−”)”.

Source of the values: US20250163052A1, “cGAS INHIBITORS AND USES THEREOF” (Cornell University, priority 2022, published 2025).
